Source: patent publication US11066447B2, “Aureobasidium derivatives and methods of synthesis” (AureoGen Biosciences, Inc., priority 2016, dated 2021)
≈ marks a conversion by molar mass, not a printed value. Like-named read-outs stand apart in the source and are kept apart here. Blank lines part the entries; values can stand above or below the compound they belong to. Numbered stars: 1 amine (or outer) side, 2 acyl side, 3 side chain; on linkers, the order of the positions; unused ones are H or OH. Square brackets hold non-standard residues; d marks the D form. Peptide text beside a SMILES is read from it. X16 = CC(C)c1cc(-c2cccc(C[C@@H](C(=O)[*:2])N(C)[*:1])c2)ccn1; X11 = CN([C@@H](Cc1cccc(-c2cccc3ncccc23)c1)C(=O)[*:2])[*:1]; X23 = CN([C@@H](Cc1cccc(-c2cccc3c2cnn3C)c1)C(=O)[*:2])[*:1]; Hmp(2R,3S) = CC[C@H](C)[C@@H](O)C(=O)O; NMeVal(β-OH) = CN[C@H](C(=O)O)C(C)(C)O; NMeV = CN[C@H](C(=O)O)C(C)C

Key:
[1] = tested on: C. neoformans MMX 0634 ATCC 90112; test: MIC assay (CLSI microdilution); type: cell-based; conditions: Cryptococcus neoformans, ATCC90112, RPMI plus 0.002% Tween-80; read-out: MIC
[2] = tested on: A. fumigatus MMX 6782 ATCC 13073; test: MIC/MEC assay (CLSI microdilution); type: cell-based; conditions: Aspergillus fumigatus
Summary of the method: (§1)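 CLSI microdilution; RPMI-1640 + 0.002% Tween-80 (MMX 5280 additionally without Tween). Two-fold dilution series, compounds from EtOH stocks, amphotericin B from DMSO, tested 0.06-64 μg/mL. Inoculum ~0.2-2.5×10^4 CFU/mL final.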

[3] = tested on: A. niger MMX 0624 ATCC 16888; test: MIC/MEC assay (CLSI microdilution); type: cell-based; conditions: Aspergillus niger
Summary of the method: as §1

[4] = tested on: A. fumigatus MMX 6781 ATCC MYA-4609; test: MIC/MEC assay (CLSI microdilution); type: cell-based; conditions: Aspergillus fumigatus
Summary of the method: as §1

[5] = tested on: A. fumigatus from Aureogen; test: MIC/MEC assay (CLSI microdilution); type: cell-based; conditions: Aspergillus fumigatus
Summary of the method: as §1

[6] = tested on: A. fumigatus MMX 5944; test: MIC/MEC assay (CLSI microdilution); type: cell-based
Summary of the method: as §1

[7] = tested on: A. flavus MMX 5948; test: MIC/MEC assay (CLSI microdilution); type: cell-based; conditions: Aspergillus flavus
Summary of the method: as §1

[8] = tested on: C. parapsilosis MMX 2323 ATCC 22019; test: MIC assay (CLSI microdilution); type: cell-based, Candida parapsilosis
Summary of the method: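 Broth microdilution MIC testing of Candida parapsilosis ATCC 22019 followed CLSI methods in RPMI-1640, with or without 0.002% Tween-80. Yeast grown 48 hours at 35° C on Sabouraud dextrose agar was suspended to a 0.5 McFarland standard and diluted 1:100 to roughly 0.5-2.5×10^3 CFU/mL. The MIC was the lowest concentration preventing visible growth.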

[9] = tested on: C. albicans MMX 2000 ATCC 10231; test: MIC assay (CLSI microdilution); type: cell-based; conditions: Candida albicans, ATCC10231, RPMI plus 0.002% Tween-80
[10] = tested on: A. fumigatus MMX 5280 ATCC MYA-3626; test: MIC/MEC assay (CLSI microdilution); type: cell-based, Aspergillus fumigatus
Summary of the method: as §1

[11] = tested on: C. albicans MMX 2000 ATCC 10231; test: MIC assay (CLSI microdilution); type: cell-based; conditions: Candida albicans, ATCC10231, RPMI plus 0.002% Tween-80; read-out: MIC
[12] = RPMI plus 0.002% Tween-80, 48 hr
[13] = RPMI plus 0.002% Tween-80, 48 hr, read-out: MIC
[14] = ATCC22019, RPMI plus 0.002% Tween-80, read-out: MIC
[15] = ATCC22019, Without Tween-80, read-out: MIC
[16] = Aspergillus fumigatus, 48 h, RPMI plus 0.002% Tween-80, read-out: MEC
[17] = Aspergillus fumigatus, 48 h, Without Tween-80, read-out: MEC
[18] = MMX5948, 48 h, RPMI plus 0.002% Tween-80
[19] = 48 h, RPMI plus 0.002% Tween-80, read-out: MIC

Compound: CC[C@H](C)[C@@H]1NC(=O)[C@@H]2CCCN2C(=O)[C@H](Cc2cccc(-c3cccc4c3cnn4C)c2)N(C)C(=O)[C@H](Cc2ccccc2)NC(=O)[C@H](C(C)C)N(C)C(=O)[C@@H]([C@@H](C)CC)OC(=O)[C@H](C(C)(C)O)N(C)C(=O)[C@H](CC(C)C)NC(=O)[C@H](C(C)C)N(C)C1=O [Compound 14] (cyclo(F[X23]PI[NMeV]L[NMeVal(β-OH)][Hmp(2R,3S)][NMeV]))
MIC [1]: 0.5 µg/mL
minimal effective concentration ([2]; ATCC13073, RPMI plus 0.002% Tween-80, 48 hr, read-out: MEC): 0.25 µg/mL
MIC ([2]; ATCC13073, RPMI plus 0.002% Tween-80, 48 hr, read-out: MIC): > 64 µg/mL
minimal effective concentration ([3]; ATCC16888, RPMI plus 0.002% Tween-80, 48 hr, read-out: MEC): 0.12 µg/mL
MIC ([3]; ATCC16888, RPMI plus 0.002% Tween-80, 48 hr, read-out: MIC): 0.12 µg/mL
minimal effective concentration [4, 12]: 1 µg/mL
MIC [4, 13]: > 64 µg/mL
minimal effective concentration [5, 12]: 1 µg/mL
MIC [5, 13]: > 64 µg/mL
MEC [6, 12]: 1 µg/mL
MIC [6, 12]: 8 µg/mL
minimal effective concentration ([7]; MMX5948, RPMI plus 0.002% Tween-80, 48 hr): > 64 µg/mL
MIC ([7]; MMX5948, RPMI plus 0.002% Tween-80, 48 hr, read-out: MIC): > 64 µg/mL
MIC [8, 14]: 0.12 µg/mL
MIC [8, 15]: 1 µg/mL (≈ 0.812 µM)
MIC ([9]; read-out: MIC): 0.03 µg/mL
minimal effective concentration [10, 16]: 0.5 µg/mL
minimal effective concentration [10, 17]: 2 µg/mL
MIC ([10]; Aspergillus fumigatus, RPMI plus 0.002% Tween-80, 48 hr, read-out: MIC): > 64 µg/mL
MIC ([10]; Without Tween-80, 48 hr): > 64 µg/mL

Compound: CC[C@H](C)[C@@H]1NC(=O)[C@@H]2CCCN2C(=O)[C@H](Cc2cccc(-c3cccc4ncccc34)c2)N(C)C(=O)[C@H](Cc2ccccc2)NC(=O)[C@H](C(C)C)N(C)C(=O)[C@@H]([C@@H](C)CC)OC(=O)[C@H](C(C)(C)O)N(C)C(=O)[C@H](CC(C)C)NC(=O)[C@H](C(C)C)N(C)C1=O [Compound 28] (cyclo(F[X11]PI[NMeV]L[NMeVal(β-OH)][Hmp(2R,3S)][NMeV]))
MIC ([2]; ATCC13073, 48 h, RPMI plus 0.002% Tween-80): > 64 µg/mL
minimal effective concentration ([2]; ATCC13073, 48 h, read-out: MEC, RPMI plus 0.002% Tween-80): > 64 µg/mL
MIC ([3]; ATCC16888, 48 h, RPMI plus 0.002% Tween-80): 0.12 µg/mL
minimal effective concentration ([3]; ATCC16888, 48 h, read-out: MEC, RPMI plus 0.002% Tween-80): 0.12 µg/mL
MIC [7, 18]: > 64 µg/mL
MIC ([8]; ATCC22019, RPMI plus 0.002% Tween-80): 0.06 µg/mL
MIC ([8]; ATCC22019, Without Tween-80): 0.5 µg/mL (≈ 0.407 µM)
MIC [9]: 0.015 µg/mL
minimal effective concentration ([10]; Aspergillus fumigatus, 48 h, read-out: MEC, RPMI plus 0.002% Tween-80): > 64 µg/mL
minimal effective concentration ([10]; Aspergillus fumigatus, 48 h, read-out: MEC, Without Tween-80): > 64 µg/mL
MIC ([10]; Without Tween-80, 48 hr): >64/>64 μg/mL

MIC [1]: 0.12 µg/mL
MIC [11]: 0.03 µg/mL
MIC ([2]; ATCC13073, 48 h, RPMI plus 0.002% Tween-80, read-out: MIC): > 64 µg/mL
MIC ([3]; ATCC16888, 48 h, RPMI plus 0.002% Tween-80, read-out: MIC): 0.5 µg/mL
MIC [4, 19]: > 64 µg/mL
MIC [5, 19]: > 64 µg/mL
MIC ([6]; Aspergillus fumigatus, MMX5944, 48 h, RPMI plus 0.002% Tween-80, read-out: MIC): > 64 µg/mL
MIC ([7]; MMX5948, 48 h, RPMI plus 0.002% Tween-80, read-out: MIC): 1 µg/mL
MIC [8, 14]: 0.12 µg/mL
MIC [8, 15]: 1 µg/mL (≈ 0.819 µM)
MIC ([10]; Aspergillus fumigatus, 48 h, RPMI plus 0.002% Tween-80, read-out: MIC): > 64 µg/mL
MIC ([10]; Aspergillus fumigatus, 48 h, Without Tween-80, read-out: MIC): > 64 µg/mL
Compound: CC[C@H](C)[C@@H]1NC(=O)[C@@H]2CCCN2C(=O)[C@H](Cc2cccc(-c3ccnc(C(C)C)c3)c2)N(C)C(=O)[C@H](Cc2ccccc2)NC(=O)[C@H](C(C)C)N(C)C(=O)[C@@H]([C@@H](C)CC)OC(=O)[C@H](C(C)(C)O)N(C)C(=O)[C@H](CC(C)C)NC(=O)[C@H](C(C)C)N(C)C1=O [Compound 16] (cyclo(F[X16]PI[NMeV]L[NMeVal(β-OH)][Hmp(2R,3S)][NMeV]))
minimal effective concentration ([2]; ATCC13073, 48 h, RPMI plus 0.002% Tween-80, read-out: MEC): 1 µg/mL
minimal effective concentration ([3]; ATCC16888, 48 h, RPMI plus 0.002% Tween-80, read-out: MEC): 0.5 µg/mL
minimal effective concentration [4, 12]: 2 µg/mL
minimal effective concentration ([5]; 48 h, RPMI plus 0.002% Tween-80): 2 µg/mL
minimal effective concentration ([6]; Aspergillus fumigatus, MMX5944, 48 h, RPMI plus 0.002% Tween-80): 2 µg/mL
minimal effective concentration [7, 18]: 0.5 µg/mL
minimal effective concentration [10, 16]: 2 µg/mL
minimal effective concentration [10, 17]: 2 µg/mL
